Reference: patent EP3046573B1, “AMYLIN ANALOGUES” (Zealand Pharma A/S, priority 2013, dated 2015)
Read-outs that look alike come from different tables or passages of the source. Numbered stars: 1 amine (or outer) side, 2 acyl side, 3 side chain; on linkers, the order of the positions; unused ones are H or OH. Bridge positions count the residues as written; N and C are the ends. Square brackets hold non-standard residues; d marks the D form. Peptide text beside a SMILES is read from it. * marks the point of attachment. C20 diacid = O=C(O)CCCCCCCCCCCCCCCCCCC(=O)*; γGlu = O=C(O)[C@H](CCC(=O)[*:2])N[*:1]; NMeI = CC[C@H](C)[C@H](NC)C(=O)O; Sar = CNCC(=O)O

How the values were obtained:
[1] = target: T1, human calcitonin receptor (hCTR2) (Homo sapiens, UniProt P30988); test: hCTR2 assay: induction of cAMP (AlphaScreen cAMP Assay kit) in COS7 cells expressing hCTR2; type: cell-based
T1 construct: expressed in transfected cells
T1 sequence (P30988 25-474): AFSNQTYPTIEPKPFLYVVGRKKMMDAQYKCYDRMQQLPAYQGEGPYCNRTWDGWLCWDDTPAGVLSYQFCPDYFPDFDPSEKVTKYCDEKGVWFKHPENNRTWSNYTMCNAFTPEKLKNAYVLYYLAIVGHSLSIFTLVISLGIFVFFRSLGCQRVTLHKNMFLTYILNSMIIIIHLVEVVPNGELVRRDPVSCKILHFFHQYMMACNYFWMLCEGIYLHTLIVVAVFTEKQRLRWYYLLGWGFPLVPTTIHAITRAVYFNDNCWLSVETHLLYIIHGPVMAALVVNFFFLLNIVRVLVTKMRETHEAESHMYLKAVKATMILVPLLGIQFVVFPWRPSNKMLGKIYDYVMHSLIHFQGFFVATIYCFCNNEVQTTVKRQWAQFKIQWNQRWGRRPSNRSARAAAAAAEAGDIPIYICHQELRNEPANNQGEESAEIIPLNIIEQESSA
How it was run: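 Functional agonism is measured as cAMP accumulation in a COS7 line stably transfected with hCTR2, lacking endogenous RAMPs. Peptides act for 15 min at 37° C with IBMX present, and curves are fitted with a 4-parameter logistic model.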

[2] = Solubility assessment (turbidity absorbance at 325 nm); type: physicochemical; details: stock 2 mg/ml diluted 1:1, ambient temperature (typically 25°C), n=1; for Solubility, Acetate buffer pH 4: 100 mM acetate buffer pH 4.0; for Solubility, Acetate buffer pH 5: 100 mM acetate buffer pH 5.0; for Solubility, Histidine buffer pH 6: 100 mM histidine buffer pH 6.0; for Solubility, Histidine buffer pH 7: 100 mM histidine buffer pH 7.0; for Solubility, Phosphate buffer pH 6: 100 mM phosphate buffer pH 6.0; for Solubility, Phosphate buffer pH 7: 100 mM phosphate buffer pH 7.0; for Solubility, Phosphate buffer pH 7.5: 100 mM phosphate buffer pH7.5
How it was run: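 Peptide stock (2 mg/ml) in water acidified to pH 2.5 with HCl was diluted 1:1 into 100 mM acetate (pH 4.0, 5.0), histidine (pH 6.0, 7.0) or phosphate (pH 6.0, 7.0, 7.5) buffer. A280 and A325 were read at about 25°C, n=1. A325 ≤ 0.02 meant solubility ≥ 1 mg/ml.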

[3] = cAMP induction in COS7 cells expressing hCTR2, average of a minimum of 3 determinations, read-out: hCTR2 EC50

Structure (SMILES)	EC50 [1, 3] [nM]	Solubility, Acetate buffer pH 4 [2]	Solubility, Acetate buffer pH 5 [2]	Solubility, Histidine buffer pH 6 [2]	Solubility, Histidine buffer pH 7 [2]	Solubility, Phosphate buffer pH 6 [2]	Solubility, Phosphate buffer pH 7 [2]	Solubility, Phosphate buffer pH 7.5 [2]	EC50 [1] [nM]
CC[C@H](C)[C@@H](C(=O)N[C@@H](CC(C)C)C(=O)N[C@@H](CO)C(=O)N[C@@H](CO)C(=O)N[C@H](C(=O)N[C@@H](CC(N)=O)C(=O)N[C@H](C(=O)NCC(=O)N[C@@H](CO)C(=O)N[C@@H](CC(N)=O)C(=O)N[C@H](C(=O)N1CCC[C@H]1C(N)=O)[C@@H](C)O)C(C)C)[C@@H](C)O)N(C)C(=O)CN(C)C(=O)[C@H](Cc1ccccc1)NC(=O)[C@H](CC(N)=O)NC(=O)[C@H](CC(N)=O)NC(=O)[C@H](CO)NC(=O)[C@H](CO)NC(=O)[C@H](CC(C)C)NC(=O)[C@H](Cc1ccccc1)NC(=O)[C@H](CCC(=O)O)NC(=O)[C@H](C)NC(=O)[C@H](CC(C)C)NC(=O)[C@H](CCCNC(=N)N)NC(=O)[C@H](CCC(N)=O)NC(=O)[C@@H](NC(=O)[C@H](C)NC(=O)[C@@H]1CSSC[C@H](NC(=O)[C@H](CCCNC(=N)N)NC(=O)CC[C@H](NC(=O)CCCCCCCCCCCCCCCCCCC(=O)O)C(=O)O)C(=O)N[C@@H](CC(N)=O)C(=O)N[C@@H]([C@@H](C)O)C(=O)N[C@@H](C)C(=O)N[C@@H]([C@@H](C)O)C(=O)N1)[C@@H](C)O [Compound 42, [19CD]-isoGlu-RC()NTATC()ATQRLAEFLSSNNF-Gly(Me)-Ile(Me)-LSSTNVGSNTP-NH2] ({C20 diacid-γGlu}-RCNTATCATQRLAEFLSSNNF[Sar][NMeI]LSSTNVGSNTP-NH2; disulfide 2-7)	0.12	SS (SS indicates solubility ≥ 1mg/ml)	SS (SS indicates solubility ≥ 1mg/ml)	SS (SS indicates solubility ≥ 1mg/ml)	SS (SS indicates solubility ≥ 1mg/ml)	SS (SS indicates solubility ≥ 1mg/ml)	SS (SS indicates solubility ≥ 1mg/ml)	SS (SS indicates solubility ≥ 1mg/ml)	
CC[C@H](C)[C@@H](C(=O)N[C@@H](CC(C)C)C(=O)N[C@@H](CO)C(=O)N[C@@H](CO)C(=O)N[C@H](C(=O)N[C@@H](CC(N)=O)C(=O)N[C@H](C(=O)NCC(=O)N[C@@H](CO)C(=O)N[C@@H](CC(N)=O)C(=O)N[C@H](C(=O)N1CCC[C@H]1C(N)=O)[C@@H](C)O)C(C)C)[C@@H](C)O)N(C)C(=O)[C@H](C)NC(=O)CN(C)C(=O)[C@H](Cc1ccccc1)NC(=O)[C@H](CC(N)=O)NC(=O)[C@H](CO)NC(=O)[C@H](CO)NC(=O)[C@H](Cc1c[nH]cn1)NC(=O)[C@H](Cc1c[nH]cn1)NC(=O)[C@H](CC(C)C)NC(=O)[C@H](Cc1ccccc1)NC(=O)[C@H](CCC(=O)O)NC(=O)[C@H](C)NC(=O)[C@H](CC(C)C)NC(=O)[C@H](CCCNC(=N)N)NC(=O)[C@H](CCC(N)=O)NC(=O)[C@@H](NC(=O)[C@H](C)NC(=O)[C@@H]1CSSC[C@H](NC(=O)[C@H](CCCNC(=N)N)NC(=O)CC[C@H](NC(=O)CCCCCCCCCCCCCCCCCCC(=O)O)C(=O)O)C(=O)N[C@@H](CC(N)=O)C(=O)N[C@@H]([C@@H](C)O)C(=O)N[C@@H](C)C(=O)N[C@@H]([C@@H](C)O)C(=O)N1)[C@@H](C)O [Compound 44, [19CD]-isoGlu-RC()NTATC()ATQRLAEFLHHSSNF-Gly(Me)-A-Ile(Me)-LSSTNVGSNTP-NH2] ({C20 diacid-γGlu}-RCNTATCATQRLAEFLHHSSNF[Sar]A[NMeI]LSSTNVGSNTP-NH2; disulfide 2-7)	0.15	SS (SS indicates solubility ≥ 1mg/ml)	II (II indicates solubility ≤ 1 mg/ml)	II (II indicates solubility ≤ 1 mg/ml)	SS (SS indicates solubility ≥ 1mg/ml)	SS (SS indicates solubility ≥ 1mg/ml)	SS (SS indicates solubility ≥ 1mg/ml)	SS (SS indicates solubility ≥ 1mg/ml)	
CC[C@H](C)[C@@H](C(=O)N[C@@H](CC(C)C)C(=O)N[C@@H](CO)C(=O)N[C@@H](CO)C(=O)N[C@H](C(=O)N[C@@H](CC(N)=O)C(=O)N[C@H](C(=O)NCC(=O)N[C@@H](CO)C(=O)N[C@@H](CC(N)=O)C(=O)N[C@H](C(=O)N1CCC[C@H]1C(N)=O)[C@@H](C)O)C(C)C)[C@@H](C)O)N(C)C(=O)[C@H](C)NC(=O)CN(C)C(=O)[C@H](Cc1ccccc1)NC(=O)[C@H](CC(N)=O)NC(=O)[C@H](CC(N)=O)NC(=O)[C@H](CO)NC(=O)[C@H](Cc1c[nH]cn1)NC(=O)[C@H](Cc1c[nH]cn1)NC(=O)[C@H](CC(C)C)NC(=O)[C@H](Cc1ccccc1)NC(=O)[C@H](CCC(=O)O)NC(=O)[C@H](C)NC(=O)[C@H](CC(C)C)NC(=O)[C@H](CCCNC(=N)N)NC(=O)[C@H](CCC(N)=O)NC(=O)[C@@H](NC(=O)[C@H](C)NC(=O)[C@@H]1CSSC[C@H](NC(=O)[C@H](CCCNC(=N)N)NC(=O)CC[C@H](NC(=O)CCCCCCCCCCCCCCCCCCC(=O)O)C(=O)O)C(=O)N[C@@H](CC(N)=O)C(=O)N[C@@H]([C@@H](C)O)C(=O)N[C@@H](C)C(=O)N[C@@H]([C@@H](C)O)C(=O)N1)[C@@H](C)O [Compound 45, [19CD]-isoGlu-RC()NTATC()ATQRLAEFLHHSNNF-Gly(Me)-A-Ile(Me)-LSSTNVGSNTP-NH2] ({C20 diacid-γGlu}-RCNTATCATQRLAEFLHHSNNF[Sar]A[NMeI]LSSTNVGSNTP-NH2; disulfide 2-7)		II (II indicates solubility ≤ 1 mg/ml)	II (II indicates solubility ≤ 1 mg/ml)	II (II indicates solubility ≤ 1 mg/ml)	II (II indicates solubility ≤ 1 mg/ml)	II (II indicates solubility ≤ 1 mg/ml)	II (II indicates solubility ≤ 1 mg/ml)	II (II indicates solubility ≤ 1 mg/ml)	0.14
CC[C@H](C)[C@@H](C(=O)N[C@@H](CC(C)C)C(=O)N[C@@H](CO)C(=O)N[C@@H](CO)C(=O)N[C@H](C(=O)N[C@@H](CC(N)=O)C(=O)N[C@H](C(=O)NCC(=O)N[C@@H](CO)C(=O)N[C@@H](CC(N)=O)C(=O)N[C@H](C(=O)N1CCC[C@H]1C(N)=O)[C@@H](C)O)C(C)C)[C@@H](C)O)N(C)C(=O)CN(C)C(=O)[C@H](Cc1ccccc1)NC(=O)[C@H](CC(N)=O)NC(=O)[C@H](CC(N)=O)NC(=O)[C@H](CO)NC(=O)[C@H](Cc1c[nH]cn1)NC(=O)[C@H](Cc1c[nH]cn1)NC(=O)[C@H](CC(C)C)NC(=O)[C@H](Cc1ccccc1)NC(=O)[C@H](CCC(=O)O)NC(=O)[C@H](C)NC(=O)[C@H](CC(C)C)NC(=O)[C@H](CCCNC(=N)N)NC(=O)[C@H](CCC(N)=O)NC(=O)[C@@H](NC(=O)[C@H](C)NC(=O)[C@@H]1CSSC[C@H](NC(=O)[C@H](CCCNC(=N)N)NC(=O)CC[C@H](NC(=O)CCCCCCCCCCCCCCCCCCC(=O)O)C(=O)O)C(=O)N[C@@H](CC(N)=O)C(=O)N[C@@H]([C@@H](C)O)C(=O)N[C@@H](C)C(=O)N[C@@H]([C@@H](C)O)C(=O)N1)[C@@H](C)O [Compound 46, [19CD]-isoGlu-RC()NTATC()ATQRLAEFLHHSNNF-Gly(Me)-Ile(Me)-LSSTNVGSNTP-NH2] ({C20 diacid-γGlu}-RCNTATCATQRLAEFLHHSNNF[Sar][NMeI]LSSTNVGSNTP-NH2; disulfide 2-7)	0.15	II (II indicates solubility ≤ 1 mg/ml)	II (II indicates solubility ≤ 1 mg/ml)	II (II indicates solubility ≤ 1 mg/ml)	II (II indicates solubility ≤ 1 mg/ml)	II (II indicates solubility ≤ 1 mg/ml)	II (II indicates solubility ≤ 1 mg/ml)	II (II indicates solubility ≤ 1 mg/ml)	
